Peptide text beside a SMILES is read from it.
Columns and labels:
[1] = tested on: Pseudomonas aeruginosa (Pa) biofilm; assay: static abiotic solid surface (microtiter, crystal violet) / Bioflux biofilm inhibition screen; format: cell-based; conditions: peptide 10 μg/ml
Experimental: FIG. 1. Identification of new anti-biofilm peptides active against P. aeruginosa using the microtiter plate screening method with crystal violet staining. […] As a control peptide 1037 was utilized [de la Fuente Nunez et al. 2011].
(§1) Methods of assessment of anti-biofilm activity—Biofilm formation was initially analyzed using a static abiotic solid surface assay as described elsewhere (de la Fuente-Nunez et al., 2012). Dilutions (1/100) of overnight cultures were incubated in BM2 biofilm-adjusted medium [62 mM potassium phosphate buffer (pH 7), 7 mM (NH4)2SO4, 2 mM MgSO4, 10 μM FeSO4, 0.4% (wt/vol) glucose, 0.5% (wt/vol) Casamino Acids], or a nutrient medium such as Luria Broth, in polypropylene microtiter plates (Falcon, United States) in the absence (control) or presence of peptide. Peptide was added at time zero (prior to adding the diluted, overnight cultures) in varying concentrations, and the decrease in biofilm formation was recorded at 22-46 h for most bacteria. Planktonic cells were removed, biofilm cells adhering to the side of the tubes were stained with crystal violet, and absorbance at 595 nm was measured using a microtiter plate reader (Bio-Tek Instruments Inc., United States). Some peptides were screened against two Gram negative organisms, P. aeruginosa and K. pneumoniae using a Bioflux apparatus (AutoMate Scientific, Berkeley, Calif.; http://www.autom8.com/bioflux_biofilm.html), which allows for the high-throughput, real-time analysis of biofilms.

[2] = tested on: Klebsiella pneumoniae (Kp) biofilm; format: cell-based; conditions: peptide 10 μg/ml
Experimental: as §1

P. aeruginosa biofilms = conditions: biofilms
Experimental: Peptides and various conventional antibiotics were analyzed by checkerboard titration into microtiter trays using CLSI methods (Wiegand, I., K. Hilpert, and R. E. W. Hancock. 2008. Nature Protocols 3:163-175), bacteria added and, after overnight incubation at 37° C., the residual biofilm assessed by the crystal violet method mentioned in the body of the grant, with an A595 of 0.2 considered as 100% biofilm inhibition. The effects of the peptide in reducing the minimal biofilm inhibitory concentration (MBIC) of the antibiotic and vice versa were assessed using the Fractional Inhibitory Concentration (FIC) method whereby ΣFTC=FICA+FICB=(CA/MICA)+(CB/MICB), where MBICA and MBICB are the MBICs of peptide A and antibiotic B alone, respectively, and CA and CB (expressed in μg/ml) are the MICs of the drugs in combination. This conventional clinical microbiology assay is interpreted as follows

[3] = tested on: human peripheral blood mononuclear cells (MCP-1); assay: MCP-1 chemokine production by ELISA; format: cell-based; conditions: 24 hours of stimulation; lowest peptide concentration 20 μg/ml
Experimental: FIG. 19. High production of anti-infective chemokine MCP-1 by human peripheral blood mononuclear cells treated with peptides, as determined by ELISA after 24 hours of stimulation.
Venous blood (20 ml) from healthy volunteers was collected in Vacutainer® collection tubes containing sodium heparin as an anticoagulant (Becton Dickinson, Mississauga, ON) in accordance with UBC ethical approval and guidelines. Blood was diluted 1:1 with complete RPMI 1640 medium and separated by centrifugation over a Ficoll-Paque® Plus (Amersham Biosciences, Piscataway, N.J., USA) density gradient. White blood cells were isolated from the buffy coat, washed twice in RPMI 1640 complete medium, and the number of peripheral blood mononuclear cells (PBMC) was determined by Trypan blue exclusion. PBMC (5×10^5) were seeded into 12-well tissue culture dishes (Falcon; Becton Dickinson) at 0.75 to 1×10^6 cells/ml at 37° C. in 5% CO2. The above conditions were chosen to mimic conditions for circulating blood monocytes entering tissues at the site of infection via extravasation.
Following incubation of the cells under various treatment regimens, the tissue culture supernatants were centrifuged at 1000×g for 5 min, then at 10,000×g for 2 min to obtain cell-free samples. Supernatants were aliquoted and then stored at −20° C. prior to assay for various chemokines by capture ELISA (eBioscience and BioSource International Inc., CA, USA respectively)

human PBMC (MCP-1) = assay: synergy with poly(I:C) to increase MCP-1 production; format: cell-based; conditions: 10 μg/ml peptide with 20 μg/ml poly(I:C)
Experimental: FIG. 21. Ability of 10 μg/ml of peptides in combination with 20 or 5 μg/ml of the known adjuvant poly inosine:cytosine [poly(I:C)] to synergize to increase MCP-1 production, a known adjuvant property [see Kindrachuk, J., H. Jenssen, M. Elliott, R. Townsend, A. Nijnik, S. F. Lee, V. Gerdts, L. A. Babiuk, S. A. Halperin and R. E. W. Hancock. 2009. A novel vaccine adjuvant comprised of a synthetic innate defence regulator peptide and CpG oligonucleotide links innate and adaptive immunity. Vaccine 27:4662-4671].
It is well accepted that vaccine immunization is best achieved by co-adminstration of an adjuvant. The precise mechanism by which these adjuvants work has eluded immunologists but appears to work in part by upregulating elements of innate immunity that smooth the transition to adaptive (antigen-specific) immunity (Bendelac A and R. Medzhitov. 2002. Adjuvants of immunity: Harnessing innate immunity to promote adaptive immunity J. Exp. Med. 195:F19-F23). Within this concept there are several possible avenues by which adjuvants might work including the attraction of immune cells into the site at which a particular antigen is injected, through e.g. upregulation of chemokines, the appropriate activation of cells when they reach that site, which can be caused by local cell or tissue damage releasing endogenous adjuvants or through specific cell activation by the adjuvants, and the compartmentalization of immune responses to the site of immunization (the so-called “depot” effect). […] 2010. Immunomodulators as adjuvants for vaccines and antimicrobial therapy. Ann. NY Acad. Sci. 1213:46-61].

human PBMC (TNFα) = assay: LPS-induced TNFα production by ELISA; format: cell-based; conditions: P. aeruginosa LPS, 24 hr
Experimental: FIG. 20. Ability of peptides to knockdown pro-inflammatory cytokine TNFα production by human PBMCs in response to bacterial LPS treatment as determined by ELISA after 24 hours.
LPS from P. aeruginosa strain H103 was highly purified free of proteins and lipids using the Darveau-Hancock method. Briefly, P. aeruginosa was grown overnight in LB broth at 37° C. Cells were collected and washed and the isolated LPS pellets were extracted with a 2:1 chloroform:methanol solution to remove contaminating lipids. Purified LPS samples were quantitated using an assay for the specific sugar 2-keto-3-deoxyoctosonic acid (KDO assay) and then resuspended in endotoxin-free water (Sigma-Aldrich).
Human PBMC were obtained as described above and treated with P. aeruginosa LPS (10 or 100 ng/ml) with or without peptides for 24 hr after which supernatants were collected and TNFα assessed by ELISA.

[4] = tested on: Pseudomonas aeruginosa PA14 and PAO1 and Burkholderia cenocepacia; assay: swarming and surfing motility; format: cell-based
From the text: Motility is strongly involved in the virulence of bacteria since it plays an important role in the attachment of bacteria to surfaces, including those in the body and on indwelling medical devices, and in colonization of these surfaces and biofilm formation. P. aeruginosa is known to utilize at least 4 different types of motility: (a) flagellum-mediated swimming in aqueous environments and at low agar concentrations (<0.3% agar), (b) type IV pilus-mediated twitching on solid surfaces or interfaces, (c) swarming on semi-solid media (0.5-0.7% agar) in poor nitrogen (N) sources such as amino acids (AA) and (d) surfing on low agar concentrations containing mucin.
Swarming motility is a social phenomenon (a complex adaptation) involving the coordinated and rapid movement of bacteria across a semi-solid (viscous) surface, and is widespread among flagellated pathogenic bacteria. […]
This was independent of bacterial killing (antimicrobial peptide action measured by MIC) since these peptides were able to inhibit the swarming of Burkholderia cenocepacia, which as mentioned above is completely resistant to all cationic antimicrobial peptides due to its altered outer membrane.

Row | Compound | % Biofilm Inhibition Pa [1] [%] | % Biofilm Inhibition Kp [2] [%] | MCP-1 induction [3] | synergy with poly(I:C) in MCP-1 production (human PBMC (MCP-1)) | suppression of LPS-induced TNFα (human PBMC (TNFα)) | also measured
1 | CC[C@@H](C)[C@@H](NC(=O)[C@@H](C)NC(=O)[C@@H](CCCNC(=N)N)NC(=O)[C@@H](Cc1c[nH]c2ccccc12)NC(=O)[C@@H](CCC(N)=O)NC(=O)[C@H](N)C(C)C)C(=O)N[C@H](CCCNC(=N)N)C(=O)N[C@@H](C(=O)N[C@H](CCCNC(=N)N)C(=O)N[C@@H](C(=O)N[C@@H](C(=O)N[C@H](CCCNC(=N)N)C(N)=O)[C@H](C)CC)C(C)C)C(C)C [DJK5] | 99.7 | 99.8 |  |  |  | MIC for complete inhibition of Pseudomonas aeruginosa (P. aeruginosa biofilms): 1 µg/mL; Minimal Biofilm Inhibitory Concentration (MBIC) (P. aeruginosa biofilms): 0.5 µg/mL
2 | CC[C@H](C)[C@H](N)C(=O)N[C@@H](CC(C)C)C(=O)N[C@@H](CCCNC(=N)N)C(=O)N[C@@H](Cc1c[nH]c2ccccc12)C(=O)N1CCC[C@H]1C(=O)N[C@@H](Cc1c[nH]c2ccccc12)C(=O)N1CCC[C@H]1C(=O)N[C@@H](Cc1c[nH]c2ccccc12)C(=O)N[C@@H](CCCNC(=N)N)C(=O)N[C@@H](CCCNC(=N)N)C(=O)N[C@@H](CCCCN)C(N)=O [MX226, reference compound] (H-ILRWPWPWRRK-NH2; N-terminus assumed) | 18 | 18 |  |  |  | 
3 | CC[C@H](C)[C@H](NC(=O)[C@H](CCCNC(=N)N)NC(=O)[C@@H](NC(=O)[C@@H](NC(=O)[C@H](CC(C)C)NC(=O)[C@H](CCCNC(=N)N)NC(=O)[C@@H](N)C(C)C)[C@@H](C)CC)C(C)C)C(=O)N[C@@H](Cc1c[nH]c2ccccc12)C(=O)N[C@@H](CCCNC(=N)N)C(=O)N[C@@H](CCCNC(=N)N)C(N)=O [HE10] (H-VRLIVRIWRR-NH2; N-terminus assumed) |  |  | clearly superior to peptide 1018 | showed synergy | strongly suppressed | 
4 | polymyxin B |  |  |  |  |  | swarming motility ([4]; low concentrations): does not have anti-swarming or anti-surfing activity; surfing motility ([4]; mucin-containing plates): does not have anti-swarming or anti-surfing activity
5 | CC[C@H](C)[C@H](NC(=O)[C@H](CC(C)C)NC(=O)[C@H](CCCNC(=N)N)NC(=O)[C@@H](N)C(C)C)C(=O)N[C@@H](Cc1c[nH]c2ccccc12)C(=O)N[C@@H](C)C(=O)N[C@H](C(=O)N[C@@H](CCCNC(=N)N)C(=O)N[C@H](C(=O)N[C@@H](Cc1c[nH]c2ccccc12)C(=O)N[C@@H](CCCNC(=N)N)C(=O)N[C@@H](CCCNC(=N)N)C(N)=O)[C@@H](C)CC)C(C)C [HE4] (H-VRLIWAVRIWRR-NH2; N-terminus assumed) |  |  | clearly superior to peptide 1018 | showed synergy | strongly suppressed | 
